Format in all cases: cell-based, human
The subject of data set [1] is U87 MG/PER2-dLuc cells. The experiment in a line: in vitro cellular bioluminescence (PER2-dLuc circadian reporter) assay. As to conditions: for concentration that disrupted the cellular circadian rhythm: Fig. 3. As to the method:
U-87 MG (ATCC® HTB-14™) is a well-recognized human glioblastoma cell line widely used in the field of neuroscience. U87 MG cells have a regular and strong cellular circadian rhythm after transfection with a circadian gene (i.e., BMAL1) reporter vector (Jung et al. [2013]; Slat et al. [2017]). As described in our previous report (Fang et al. [2015], [2017]), U87 MG cells were transfected with a circadian reporter vector pGL [PER2P (Luc2P/Neo)] expressing destabilized firefly luciferase driven by the human PER2 promoter using FuGene HD™ transfection reagent (LightSwitch Genomics), and stably transfected cells were selected and cultured with 1000 μg/mL G418 (Invitrogen). The stably transfected cells were used to examine the cellular circadian rhythm using an in vitro cellular bioluminescence assay. U87 MG/PER2P-dLuc cells were cultured in Eagle’s minimum essential medium (EMEM) (11430030; Gibco) supplemented with 5% fetal bovine serum (FBS) (26140079; Gibco) and 1% penicillin/streptomycin (15140122; Gibco) at 37 °C in an atmosphere of 95% humidity and 5% CO2.
(§1) Briefly, cultured U87 MG/PER2 -dLuc cells were seeded in 35-mm dishes at 3 × 10^5 cells/dish and incubated until 70–80% confluency was reached. The cells were FBS-starved for three days at 70% confluency and then synchronized with 50% horse serum (16050122; Gibco) (Balsalobre et al. [1998]). After decanting and washing, recording medium (EMEM with 20% of growing medium containing 5% FBS, 6.5 mM sodium bicarbonate, 10 mM HEPES buffer [pH 7.2], 0.1 mM luciferin [E1602; Promega], and 50 U/mL penicillin and 50 µg/mL streptomycin) was added. Subsequently, the cells were treated with each compound. The 35-mm dishes were sealed with a sterile glass cover slide using silicon grease and subjected to continuous monitoring with a LumiCycle 32™ (Actimetrics) for 5 days. The analytical method was optimized according to the instruction manual of the LumiCycle Analysis Software (Actimetrics). Using this software, data were detrended (running average), and best fits to a sine wave were estimated using the Levenberg–Marquardt algorithm for period, phase, amplitude, and damping rate measurements, as previously reported (Chen et al. [2012]; Fang et al. [2015], [2017]).

Data set [2] relates to U87 MG/PER2-dLuc cells. The experiment in a line: multiparametric high-content screening (HCS) assay. As to conditions: for LOAEL LP (lipid peroxidation): BODIPY 665/676; for LOAEL NC (nuclear size): Hoechst 33342; for LOAEL MMP (mitochondrial membrane potential): TMRM; for LOAEL CA (calcium ion): Fluo-4 AM. As to the method: A multiparametric analysis of compound toxicity at the level of individual cells was conducted using the HCS method established by Tolosa et al. ([2012]) to assess the liver toxicity of chemicals and drugs. Briefly, U87 MG/PER2-dLuc cells were seeded in 96-well plates specific for HCS at a density of 10^4 cells/well. […] Following these treatments, cells were treated with a mixture of Hoechst 33342 (Hoechst) (B2261; Sigma-Alrich) at 1.5 µg/mL to assess the nuclear size (NC), 75 ng/mL tetramethyl rhodamine methyl ester (TMRM) (T-668; Molecular Probes) as a mitochondrial membrane potential (MMP) sensor, 0.24 µM fluo-4 acetoxymethyl ester (Fluo-4 AM) (F14217; Molecular Probes) to detect intracellular calcium ions (Ca^2+), and 1.5 µg/mL of (E,E)-3,5-bis-(4-phenyl-1,3-butadienyl)-4,4-difluoro-4-bora-3a,4a-diaza-s-indacene (BODIPY 665/676) (b-3932; Molecular Probes) to evaluate lipid peroxidation. After incubation for 1 h, the cells were imaged using an IN Cell Analyzer 6000 (GE Healthcare Life Sciences) and analyzed using IN Cell Miner HCM. The data were analyzed with IN Cell Analyzer 6000 Analysis Software. Nuclear morphological alterations were assessed based on the Hoechst staining. The nucleus was defined as the main object detected using an edge detection algorithm. To separate individual cells, segmentation was applied. All measurements were restricted to live cells. Lipid peroxidation was detected based on BODIPY fluorescence intensity in the cytoplasm. The cellular MMP was defined as the TMRM fluorescence intensity in punctate cytosolic regions surrounding the nucleus. Fluo-4 intensity was used to measure changes in the cytosolic-free Ca^2+ concentration. An intensity algorithm with a fixed threshold was used to measure TMRM, Fluo-4, and BODIPY fluorescence. Each measurement was performed in individual cells. The values of triplicate same-treatment wells were averaged and normalized to the average value of vehicle control (0.1% DMSO-treated or naïve cells).
The values of triplicate same-treatment wells were averaged and normalized to the average value of the negative control group, and differences in parameters between concentrations were analyzed using one-way ANOVA followed by Duncan’s tests. A p-value < 0.05 was considered significant.

Data set [3] relates to U87 MG/PER2-dLuc cells. The experiment in a line: cells. As to conditions: 72 h treatment. On the procedure: U87 MG/PER2-dLuc cells were subjected to the 3-(4, 5-dimethylthiazol-2-yl)-2, 5-diphenyl tetrazolium bromide (MTT) (M2128; Sigma-Aldrich) assay. […] Briefly, U87 MG/PER2-dLuc cells were seeded in 96-well plates at a density of 10^5 cells/mL, incubated for 48 h, and treated with relevant chemicals at various concentrations for 72 h. Subsequently, the media with chemicals were decanted and 20μl of MTT reagent solution (5 mg/ml) with 80μl of the media was added to all wells the plates and were incubated for 2 h until the formation of formazan crystals. The reagent solution was decanted, and 100μl of DMSO (D8418; Sigma-Aldrich) was added. Absorbance was measured at 570 nm using a spectrophotometer (Molecular Devices). The values of triplicate same-treatment wells were averaged.

Data set [4] deals with U87 MG/PER2-dLuc cells. The experiment in a line: cellular circadian rhythm assay with neurotoxicants in the presence of antioxidants. On the procedure:
as §1
The cellular circadian rhythm was recorded as described above.

Each structure is given as a SMILES string. Where two headings read alike, the source gives them in different places. Marks after values point to notes of the source that are not given here.

Consider `[CH3][Hg][Cl]` [MHg, methylmercury (II) chloride], for which the “concentration that disrupted the cellular circadian rhythm” value in data set [1] is 2.0 µM. Moreover, in data set [2] (24-h treatment), the “LOAEL LP (lipid peroxidation)” value was 8** µM, the “LOAEL NC (nuclear size)” value is 4** µM and the “LOAEL MMP (mitochondrial membrane potential)” value is listed as 0.5* µM. The “concentration that increased intracellular Ca2+ levels” value in data set [2] (72-h timepoint) is recorded as “above 0.03 µM”. In addition, in data set [2] (72-h treatment), the “LOAEL LP (lipid peroxidation)” value is recorded as 0.031** µM, the “LOAEL CA (calcium ion)” value is recorded as 0.031** µM and the “LOAEL NC (nuclear size)” value is recorded as 4** µM. The “concentration that significantly reduced lipid peroxidation levels” value in data set [2] (24 h after treatment) is on record as 8.0 µM. Also, the “lowest concentration with decrease in MMP” value in data set [2] (24 h of treatment) came out at 0.5 µM. The “concentrations that decreased nuclear size” value in data set [2] (24 h of treatment, p < 0.01, text) was 4 to 8 µM. Moreover, in data set [2] (72 h of treatment), the “concentrations with increased lipid peroxidation” value is “above 0.031 µM”. In addition, the “concentrations that changed nuclear size” value in data set [2] (72 h of treatment, MHg biphasic changes, MPP + reduction) was in the range of 2 to 8 µM. In data set [3], the “IC15 (MTT, Table 1)” value amounted to 2.5 µM. In addition, the IC50 in data set [3] (read-out: IC50 (MTT, Table 1)) worked out at 3.9 µM. Besides, in data set [3] (read-out: IC50 (cell viability, MTT)), the IC50 came out at 3.97 µM.
On to `C[Se]C[C@H](N)C(=O)O` [MSC, methylselenocysteine], for which, in data set [4] (1.5 µM CPF, 20 µM NAC, 12.5 µM (or 25 µM) MSC), the “restoration of circadian rhythm disrupted by CPF” value was “restored the circadian rhythm”. In data set [4] (2.0 µM MHg, co-treatment with NAC and MSC), the “effect on circadian rhythm disrupted by MHg” value is “reduced the first high-altitude peak”. Also, the “restoration of cellular rhythm disrupted by DDT” value in data set [4] (10 µM DDT, co-treatment with NAC (10 or 20 µM) or MSC (12.5 or 25 µM)) is given as “restored the cellular rhythm”. The “restoration of MPP + -disrupted rhythmicity” value in data set [4] (MPP + at LOAEL, restored rhythm not similar to that of control cells) was “restore the cellular circadian rhythm to a certain extent”.
For `CCOP(=S)(OCC)Oc1nc(Cl)c(Cl)cc1Cl` [CPF, chlorpyrifos], in data set [1], the “concentration that disrupted the cellular circadian rhythm” value is given as 1.5 µM. The “LOAEL Circadian disruption” value in data set [1] (U87 MG/PER2-dLuc cells, bioluminescence monitored 5 days) came to 1.5 µM. The “effect on cellular circadian rhythm” value in data set [1] (at disrupting concentration: MPP + ≥ 30 µM, DDT 10 µM, PMX ≥ 30 µM, CPX ≥ 40 µM, CPF 1.5 µM) is “abolished the cellular circadian rhythm”. Besides, the “LOAEL CA (calcium ion)” value in data set [2] (24-h treatment) is 1.41** µM; in data set [2] (72-h treatment), 0.7** µM. In data set [2] (24-h treatment), the “LOAEL MMP (mitochondrial membrane potential)” value is 1.41** µM. Also, the “lowest concentration with decrease in MMP” value in data set [2] (24 h of treatment) came to 1.41 µM. Besides, the “concentrations that increased the intracellular Ca2+ level” value in data set [2] (both the 24- and 72-h timepoints) is 0.7 to 45 µM. In addition, the “IC15 (MTT, Table 1)” value in data set [3] turned out to be 13.9 µM. Also, the IC50 was determined as 43.7 µM in data set [3] (Homo sapiens, U-87 MG, no unit with values, axis Concentration[μM], read-out: IC50 (cell viability, MTT; Fig. 1)) and 60 µM in data set [3] (Homo sapiens, U-87 MG, read-out: IC50 (MTT, Table 1)).

Usually IC50 stands for the concentration that inhibits the measured activity by half.

These data come from publication PMC10965668, “Combined use of multiparametric high-content-screening and in vitro circadian reporter assays in neurotoxicity evaluation” (Archives of Toxicology, 2024).
